# Data: patent publication US9656953B2, “Inhibition of cell proliferation” (University of South Florida, priority 2005, dated 2017)
# Read-outs that look alike come from different tables or passages of the source.
# Tests used:
# [1] = system: Rb phosphorylation (serines 807 and 811); test: Western blot of Rb phosphorylation, A549 cells; assay type: cell-based, human; conditions: cells treated 18 hours, western blotting
# Description: Lysate preparation, pmmunoprecipitation, and pestern plotting.
# Rb:Raf-1 binding = biological target: T1, Rb:Raf-1 binding (Homo sapiens, UniProt P04049+P06400); test: GST-Rb/GST-Raf-1 ELISA; conditions: for inhibition at 20 µM / % Inhibition at 20 μM: inhibition of Rb:Raf-1 binding, compound at 20 μM; for inhibition at 20 µM: read-out: % Inhibition at 20 μM; for fold less active compared to 3a: IC50 ratio to 3a; for Rb:Raf-1 binding inhibitory activity in words: ELISA
# T1 construct: a glutathione S-transferase (GST) Raf-1 (1-149aa) overnight at 4° C; made in house
# Method: In vitro library screening assays. Enzyme Linked ImmunoSorbent Assay (ELISA) 96-well plates were coated with 1 μg/mL of a glutathione S-transferase (GST) Raf-1 (1-149aa) overnight at 4° C. Subsequently the plates were blocked and GST Rb at 20 μg/mL was rotated at room temperature (RT) for 30 minutes in the presence or absence of the compounds at 20 micromolar (μM). GST-Rb +/− compounds were then added to the plate and incubated for 90 minutes (min) at 37° C. The amount of Rb bound to Raf-1 was detected by Rb polyclonal antibody (Santa Cruz Biotechnology, Santa Cruz, Calif.) 1:1000 incubated for 60 min at 37° C. Donkey-anti-rabbit-IgG-HRP (1:10,000) was added to the plate and incubated at 37° C. for 60 minutes. The color was developed with orthophenylenediamine (Sigma, St. Louis, Mo.) and the reaction was terminated with 3 molar (M) H2SO4. Absorbance was read at 490 nanometers (nm). To determine disruption of Rb to E2F1, Phb, or HDAC1 the above protocol was used with the exception of coating GST Rb on the ELISA plate and adding the drugs in the presence or absence of GST E2F1, Phb, or HDAC1. […] Prohibitin monoclonal antibody was used at 1:1000 to detect the amount of Rb bound to Prohibitin. For disruption of MEK-Raf-1 binding ELISAs, Raf-1 1 microgram/milliliter (μg/mL) was coated on the plate and GST-MEK (20 μg/mL) was incubated +/− the compounds for 30 minutes at room temperature. Mek1 polyclonal antibody was used at 1:1000 to detect the binding of Raf-1 to Mek1. The IC50 concentrations for the Rb:Raf-1 inhibitors were determined by plotting with Origin 7.5 software (Origin, Northampton, Mass.).
# A screen was developed to identify small molecule inhibitors of the Rb:Raf-1 interaction. A diversity set, comprising 1981 compounds (National Cancer Institute, Bethesda, Md.) was examined using a glutathione S-transferase-retinoblastoma/glutathione S-transferase-Raf-1 kinase Enzyme-Linked ImmunoSorbent Assay screen (GST-Rb/GST-Raf-1 ELISA).
# [2] = values in μM, read-out: IC50, Rb:Raf-1 binding
# [3] = concentration that inhibits the Rb:Raf-1 binding by 50%, triplicate, read-out: IC50 (nM), inhibition of the Rb:Raf-1 binding
# T1 sequence (P04049 1-149 limits assumed): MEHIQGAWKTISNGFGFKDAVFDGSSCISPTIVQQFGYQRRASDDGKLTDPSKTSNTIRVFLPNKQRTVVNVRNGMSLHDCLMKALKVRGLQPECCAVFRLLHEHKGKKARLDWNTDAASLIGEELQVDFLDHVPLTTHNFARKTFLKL
# T1 sequence (P06400 whole entry): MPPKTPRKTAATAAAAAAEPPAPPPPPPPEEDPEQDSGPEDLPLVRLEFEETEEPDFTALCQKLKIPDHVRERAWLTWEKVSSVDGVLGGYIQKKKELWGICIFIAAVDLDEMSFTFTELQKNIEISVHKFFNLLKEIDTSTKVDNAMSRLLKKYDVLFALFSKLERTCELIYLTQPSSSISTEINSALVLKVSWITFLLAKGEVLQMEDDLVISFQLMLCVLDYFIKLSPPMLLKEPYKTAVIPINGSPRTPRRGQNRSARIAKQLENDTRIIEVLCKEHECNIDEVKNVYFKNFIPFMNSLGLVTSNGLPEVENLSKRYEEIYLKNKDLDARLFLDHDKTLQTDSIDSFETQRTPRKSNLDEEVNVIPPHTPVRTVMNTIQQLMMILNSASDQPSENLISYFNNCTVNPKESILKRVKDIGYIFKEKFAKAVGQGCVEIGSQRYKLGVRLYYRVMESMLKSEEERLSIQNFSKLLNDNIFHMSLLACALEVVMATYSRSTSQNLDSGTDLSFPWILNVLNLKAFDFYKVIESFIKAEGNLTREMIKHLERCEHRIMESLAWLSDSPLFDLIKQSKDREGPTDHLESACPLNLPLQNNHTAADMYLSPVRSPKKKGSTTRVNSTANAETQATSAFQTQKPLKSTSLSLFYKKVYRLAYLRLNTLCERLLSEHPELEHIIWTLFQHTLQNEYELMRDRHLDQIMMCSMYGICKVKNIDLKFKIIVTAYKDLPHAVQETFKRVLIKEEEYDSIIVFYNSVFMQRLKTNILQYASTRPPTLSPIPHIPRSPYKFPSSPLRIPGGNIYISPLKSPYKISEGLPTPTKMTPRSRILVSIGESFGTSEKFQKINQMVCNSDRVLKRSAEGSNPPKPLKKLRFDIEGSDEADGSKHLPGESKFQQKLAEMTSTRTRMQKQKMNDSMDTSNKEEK
SMILES,inhibition at 20 µM (Rb:Raf-1 binding) [%],also measured
"CNC(=O)c1cc(Oc2ccc(NC(=O)Nc3ccc(Cl)c(C(F)(F)F)c3)cc2)ccn1 [BAY43-9006, sorafenib, reference compound]",,Rb phosphorylation [1]: did not seem to have any effect on Rb phosphorylation
"N=C(N)SCc1ccccc1Cl [Compound 3b, 2-chlorobenzylisothiourea]",100,IC50 (Rb:Raf-1 binding; [2]): 0.575 µM
N=C(N)SCc1ccc(Cl)c(F)c1 [Compound 3c],100,IC50 (Rb:Raf-1 binding; [2]): 0.081 µM
Cl.N=C(N)SCc1cccc(Cl)c1Cl [Compound 3d],100,fold less active compared to 3a (Rb:Raf-1 binding): more than 2 fold; IC50 (Rb:Raf-1 binding; [3]): 0.164 µM
"N=C(N)SCc1cccc(Cl)c1 [Compound 3e, 3-chlorobenzylisothiourea]",100,IC50 (Rb:Raf-1 binding; [2]): 0.23 µM
N=C(N)SCc1ccc(Cl)c(C(F)(F)F)c1 [Compound 3f],94,IC50 (Rb:Raf-1 binding; [2]): 0.312 µM
"N=C(N)SCc1ccc(Cl)cc1 [Compound 3g, 4-chlorobenzylisothiourea]",88,IC50 (Rb:Raf-1 binding; [3]): 0.274 µM
Cl.N=C(N)SCc1ccc(Cl)c(Cl)c1 [Compound 3h],81,fold less active compared to 3a (Rb:Raf-1 binding): 50 fold; IC50 (Rb:Raf-1 binding; [3]): 3.9 µM
N=C(N)SCc1cc(Cl)ccc1Cl [Compound 3i],79,IC50 (Rb:Raf-1 binding; [3]): 2.11 ± 0.18 µM
N=C(N)SCc1ccc(C(F)(F)F)cc1C(F)(F)F [Compound 3j],53,
CC(C)(C)c1ccc(CSC(=N)N)cc1 [Compound 3k],52,
N=C(N)SCc1ccc2c(c1)OCO2 [Compound 3l],49,
N=C(N)SCc1ccc([N+](=O)[O-])cc1 [Compound 3m],46,
N=C(N)SCc1ccc(C(F)(F)F)cc1 [Compound 3n],46,
COc1ccc(CSC(=N)N)cc1 [Compound 3o],45,
Cc1ccc(CSC(=N)N)cc1 [Compound 3p],44,
COc1cc(CSC(=N)N)cc(OC)c1OC [Compound 3q],20,
Cl.N=C(N)SCc1ccccc1 [Compound 3r],0,Rb:Raf-1 binding inhibitory activity in words (Rb:Raf-1 binding): inactive
Cl.N=C(N)SCc1c(Cl)cccc1Cl [Compound 3s],0,Rb:Raf-1 binding inhibitory activity in words (Rb:Raf-1 binding): inactive
Cl.N=C(N)SCc1c(Cl)cc(Cl)cc1Cl [Compound 3t],0,Rb:Raf-1 binding inhibitory activity in words (Rb:Raf-1 binding): inactive

SMILES,inhibition at 20 µM (Rb:Raf-1 binding) [%],also measured
CC(SC(=N)N)c1ccc(Cl)cc1Cl (centres unmarked) [Compound 4a],100,IC50 (Rb:Raf-1 binding; [3]): 0.322 µM
CC(SC(=N)N)c1ccc(Cl)c(Cl)c1 (centres unmarked) [Compound 4b],99,IC50 (Rb:Raf-1 binding; [3]): 0.51 ± 0.116 µM
CCC(SC(=N)N)c1ccc(Cl)cc1Cl (centres unmarked) [Compound 4c],100,IC50 (Rb:Raf-1 binding; [3]): 0.567 µM
N=C(N)SC(c1ccccc1)c1ccccc1 [Compound 4d],21,
N=C(N)SC(Cc1ccccc1)c1ccc(Cl)cc1Cl (centres unmarked) [Compound 4e],32,
N=C(N)SCc1ccc2ccccc2c1Br [Compound 5a],100,IC50 (Rb:Raf-1 binding; [3]): 0.08 µM
N=C(N)SCc1ccncc1 [Compound 5b],94,IC50 (Rb:Raf-1 binding; [3]): 2.63 ± 0.33 µM
Cl.N=C(N)SCc1ccc(Cl)c2ccccc12 [Compound 5c],,"IC50 (Rb:Raf-1 binding; IC50 (nM), inhibition of the Rb:Raf-1 binding, concentration that inhibits the Rb:Raf-1 binding by 50%, triplicate): 1.9 µM; fold reduction of activity relative to 5a (Rb:Raf-1 binding; IC50 ratio to 5a): 24 fold; % Inhibition at 20 μM (Rb:Raf-1 binding): 93%"
N=C(N)SCc1ccc2ccccc2n1 [Compound 5d],76,
N=C(N)SCc1ccc2c(c1)C(=O)c1ccccc1C2=O [Compound 5e],56,
N=C(N)SCc1c2ccccc2cc2ccccc12 [Compound 5f],22,
N=C(N)NCc1ccc(Cl)cc1 [Compound 6a],,IC50 (Rb:Raf-1 binding; [3]): 0.539 µM; % Inhibition at 20 μM (Rb:Raf-1 binding; 20 µM): 100%
Cl.N=C(N)NCc1ccc(Cl)cc1 [Compound 6b],,% Inhibition at 20 μM (Rb:Raf-1 binding): 61%
N=C(N)NCc1ccc(Cl)cc1Cl [Compound 6c],61,
Cl.N=C(N)NCc1ccccc1Cl [Compound 6d],,% Inhibition at 20 μM (Rb:Raf-1 binding): 59%
N=C(N)NCc1ccccc1Cl [Compound 6e],,% Inhibition at 20 μM (Rb:Raf-1 binding): 25%
N=C(N)NCc1ccc(Cl)cc1 [Compound 6f],,% Inhibition at 20 μM (Rb:Raf-1 binding; 20 µM): 16%
CNc1nc(-c2ccc(F)cc2F)cs1 [Compound 7a],53,
Nc1nc(-c2ccc(Cl)cc2Cl)cs1 [Compound 7b],45,
CNc1nc(-c2ccc(F)cc2)cs1 [Compound 7c],43,

SMILES,inhibition at 20 µM (Rb:Raf-1 binding) [%],also measured
CNc1nc(-c2ccccc2)cs1 [Compound 7d],39,
Nc1nc(-c2ccc(F)cc2F)cs1 [Compound 7e],39,
CNc1nc(-c2ccc(Cl)cc2)cs1 [Compound 7f],34,
CNc1nc(-c2ccc(Cl)cc2Cl)cs1 [Compound 7g],33,
Nc1nc(-c2ccc(F)cc2)cs1 [Compound 7h],32,
Nc1nc(-c2ccc(Cl)cc2)cs1 [Compound 7i],29,
Nc1nc(-c2ccccc2)cs1 [Compound 7j],22,
CNc1scc(-c2ccc(Cl)cc2)[n+]1C [Compound 8a],37,
CNc1scc(-c2ccccc2)[n+]1C [Compound 8b],22,
CNc1scc(-c2ccc(F)cc2)[n+]1C [Compound 8c],19,
CNc1scc(-c2ccc(F)cc2F)[n+]1C [Compound 8d],5,
Clc1ccc(CSc2nnc[nH]2)c(Cl)c1 [Compound 9a],92,IC50 (Rb:Raf-1 binding; [3]): 0.097 µM
Nc1nnc(SCc2ccc(Cl)cc2Cl)[nH]1 [Compound 9b],91,IC50 (Rb:Raf-1 binding; [3]): 0.131 µM
Clc1ccc(CSc2nnc[nH]2)cc1 [Compound 9c],81,
Nc1nnc(SCc2ccc(Cl)cc2)[nH]1 [Compound 9d],76,
Clc1ccc(CSc2ncc[nH]2)c(Cl)c1 [Compound 9e],68,
Clc1ccc(CSc2ncc[nH]2)cc1 [Compound 9f],67,
Clc1ccc(CSC2=NCCN2)cc1 [Compound 9g],47,
Clc1ccc(CSC2=NCCN2)c(Cl)c1 [Compound 9i],45,
Clc1ccc(CSc2nc3ccccc3[nH]2)c(Cl)c1 [Compound 9j],40,
